Laboratory results: patent publication US6689814B1, “Use of dialkyldialkylammonium halide for the preparation of a virucidal medicament intended to be administered by the systemic route” (priority 1998, dated 2004)
Several values for one entry are separate records, joined by “and”; a condition that tells them apart may be missing. Identical values can stand only once.

What was measured:
[1] = tested on: Herpesvirus simplex; test: Example 1: Herpes simplex nasal infection of Nude mice, Bardac intraperitoneal, 14-day monitoring; format: in vivo, nu/nu Nude mice; conditions: 0.025 mg i.p. twice a day
Text: Three-week-old female nu/nu Nude mice, having an average weight of 6 to 8 g, divided into two batches of 20 animals, a control group receiving only the virus (curve -x- in FIG. 1), and one group being treated with Bardac® (curve -●- in FIG. 1).
Herpesvirus simplex batch having a titer of 10′ PFU (Plaque Forming Units)/ml.
Didecyldimethylammonium chloride (Bardac®) provided by the Swiss company Lonza and used in the form of a dilution in an isotonic saline solution.
Inoculation of the virus: 30 μl by the nasal route of pure viral suspension, which corresponds to an installation of about 10^4 PFU (viral load). The inoculation is carried out according to the protocol described by KERN et al. in Antiviral Res., 1986, 6, 189-195. One mouse died during the nasal instillation.
Bardac®: inoculation by the intraperitoneal route, twice a day of a dose of 0.025 mg of the product by injection, i.e. a daily dose of 0.050 mg. According to the manufacturer (LONZA), the LD50 by the intravenous route is about 0.20 mg/10 g of mouse.
On day D0, Bardac® is injected in the morning, and 4 hours later nasal instillation of the virus is carried out, followed 6 hours later by the second injection of Bardac®; on the following days, the injections were carried out around 9 am and 5 pm.

[2] = tested on: Herpesvirus simplex; test: Example 2: Herpes simplex nasal infection of mice, Bardac intraperitoneal, 6-day monitoring and lung infectious titer; format: in vivo
Method: (§1) A test similar to the one described in Example 1 was carried out using two groups of 17 mice, one Herpesvirus simplex batch having a titer of 2×10^2 PFU/ml, by inoculating a Bardac® dose of 0.018 mg by injection (that is to say a daily-dose of 0.036 mg) and following the protocol below: on day D0, Bardac® is injected and, 12 hours later, nasal instillation of the virus is carried out, followed by intraperitoneal injections of Bardac® every twelve hours. Monitoring was carried out twice per day for six days.
(§2) At the end of the monitoring period, the lungs of the animals in the two groups were collected for culturing, in order to detect the presence of the virus. Detection of the virus is carried out as follows: the lung is homogenized in a DOUNCE® mixer and then suspended in a sterile test tube and centrifuged for 10 minutes at 2000 rpm. If the sample is not analyzed immediately, it is stored at −80° C. The infectious titer of the lung is given by titrating the virions present in 0.3 ml of centrifugation supernatant and multiplying the number of PFU by ten.

[3] = mouse, according to the manufacturer (LONZA); cited from earlier work
[4] = tested on: Herpesvirus simplex; test: Example 3: protocol of Example 2 with two batches of 52 animals; format: in vivo, mice
Method: as §1, §2
The protocol followed is identical to that of Example 2 with two batches of 52 animals.

CCCCCCCCCC[N+](C)(C)CCCCCCCCCC.[Cl-] [Bardac®, didecyldimethylammonium chloride]
percentage of survivals ([1]; treated group of 20 mice, about 10^4 PFU nasal, 14 days monitoring, control 10%): 45%
average duration of the disease ([1]; treated group, control 8.5 days): 9.2 days
infectious titer in the lung, individual treated mouse ([2]; mouse alive at D6): 0 PFU (7×) and 20 PFU (2×) and 100 PFU
infectious titer in the lung, individual treated mouse ([2]; mouse dead at D5): 0 PFU
infectious titer in the lung, individual treated mouse ([2]; mouse dead at D6): 0 PFU (2×) and 20 PFU and 150 PFU and 50 PFU and 200 PFU
total infectious titer in the lungs ([2]; sum over the 17 treated mice, control >3200): 560 PFU
percentage of survivals on day D6 ([2]; treated group of 17 mice, 0.018 mg i.p. every twelve hours, control 29%): 59%
mice alive on day D6 ([2]; treated group of 17 mice, 0.018 mg i.p. every twelve hours, control five): ten
number of infected mice ([2]; treated group of 17 mice, control 15): 7
percentage of mice infected ([2]; treated group of 17 mice, control 88%): 41%
effect on mortality and infectious titer (in words) ([2]; treated group versus control group): less affected by the virus
LD50 by the intravenous route [3]: about 0.20 mg/10 g of mouse
infectious titer in the lung, individual infected treated mouse ([4]; mouse alive at D6): > 1000 PFU (2×) and 20 PFU (2×) and 120 PFU and 250 PFU and 80 PFU
infectious titer in the lung, individual infected treated mouse ([4]; mouse dead at D3): > 1000 PFU and 50 PFU
infectious titer in the lung, individual infected treated mouse ([4]; mouse dead at D5): 300 PFU and 160 PFU and 50 PFU and 40 PFU
total infectious titer ([4]; sum over the 13 infected treated mice, control >11930): >4100 PFU
factor by which the infectious titer (in PFU) is reduced ([4]; treated animals versus control group, overall): 3
number of live mice on the sixth day ([4]; treated group of 52 mice, control 22): 39
number of mice infected with the virus ([4]; treated group of 52 mice, control 37): 13
percentage of survivors on the sixth day ([4]; treated group of 52 mice, control 42%): 75%
percentage of mice infected with the virus ([4]; treated group of 52 mice, control 71%): 25%
